Source: patent US20180057588A1, “Antibodies Towards an Extracellular Region of NBCn1” (Aarhus Universitet, priority 2015, published 2018)

Experiments:
[1] = molecular target: T1, NHE1-mediated Na+/H+-exchange in MCF-7 human breast cancer cells (Homo sapiens, UniProt P19634); conditions: Lauritzen et al., 2010; cited from earlier work
T1 construct: net acid extrusion from MCF-7 cells occurs through a combination of NBCn1-mediated Na^+,HCO3^−-cotransport and NHE1-mediated Na^+/H^+-exchange; endogenous in cells; host or cells: MCF-7 human breast cancer cells (Lauritzen et al., 2010)

[2] = test system: migrating VSMCs of primary aortic explants; assay: Filopodia length at the migrating front after scratch infliction; assay type: cell-based, mouse; conditions: for presence of filopodia: 5 μM
Protocol: (§1) Rates of wound healing in primary explants were calculated from time-lapse images captured at 5-minute intervals after scratch infliction. Experiments were performed in Minimum Essential Medium with 10% fetal calf serum or—to avoid binding of the non-selective Na^+,HCO3^−-cotransport inhibitor S0859 to medium or serum components—in physiological saline solutions (PSS). Cell size was estimated based on cell density in confluent areas. Total filopodia length was determined relative to the length of the migrating front (i.e., twice the scratch length). Cell proliferation was evaluated (a) by counting the relative number of cells dividing during six hours time-lapse imaging and (b) as the proportion of cells positive for the thymidine analogue bromodeoxyuridine (BrdU) after six hours incubation.

[3] = test system: VSMC migration in primary aortic explants; assay: Scratch-wound healing in primary aortic explants; assay type: cell-based, mouse
Protocol: as §1
(§2) The PSS was composed of (in mM) 134 Na^+, 4 K^+, 1.6 Ca^2+, 1.2 Mg^2+, 111 Cl^−, 24 HCO3^−, 1.2 SO4^2−, 1.18 H2PO4^−, 10 HEPES, 5.5 glucose, 0.03 EDTA. In Na^+-free solutions, Na^+ was substituted with an equimolar amount of N-methyl-D-glucammonium (NMDG^+), except for NaHCO3, which was replaced with choline-HCO3. In HCO3^−-free solutions, HCO3^− was replaced with an equimolar amount of Cl^−. HCO3^−-containing solutions were aerated with a gas mixture of 5% CO2/balance air, whereas HCO3^−-free solutions were gassed with air (i.e., 21% O2/balance N2). All solutions were titrated to pH 7.4 at 37° C.

[4] = test system: axial pHi gradient in migrating VSMCs of primary aortic explants; assay: Subcellular pHi by confocal microscopy (carboxy SNARF-1) in migrating VSMCs; assay type: cell-based, mouse
Protocol: (§3) Using wide-field fluorescence microscopy, global pHi was recorded in arteries and primary explants loaded with the pH-sensitive fluorophore BCECF. Recordings of pHi in subcellular domains were performed by confocal fluorescence microscopy of cells loaded with the pH-sensitive fluorophore carboxy SNARF-1. Intracellular buffering capacities were calculated from changes in pHi upon washout of NH4Cl. No difference in total intracellular buffering capacity (β) was seen between primary explants from NBCn1 KO and WT mice (βWT=15±2 mM, βKO=17±2 mM, n=8; P=0.45, unpaired two-tailed Student's t-test) evaluated at pHi 6.65-6.80.
Previous studies from non-vascular cell types propose that increased acid extrusion at the leading edge of migrating cells creates an axial pHi gradient, which can facilitate actin polymerization, filopodia formation, and cell migration. To investigate pH gradients within cells, we measured pHi -differences between the tip of filopodia and the general (perinuclear) cytosol two hours after scratch infliction. […] With the intention of investigating local pHi dynamics in the region of the filopodia, we incubated primary explants in absence of CO2/HCO3^− for two hours after wound infliction to allow for filopodia formation. We then investigated pHi after an additional 15 minutes with or without CO2/HCO3^− or in the presence of pharmacological inhibitors (FIG. 13E,F). […]

[5] = molecular target: T2, NBCn1-mediated Na+,HCO3−-cotransport in MCF-7 human breast cancer cells (Homo sapiens, UniProt Q9Y6M7); conditions: earlier work; cited from earlier work
T2 construct: net acid extrusion from MCF-7 cells occurs through a combination of NBCn1-mediated Na^+,HCO3^−-cotransport and NHE1-mediated Na^+/H^+-exchange; endogenous in cells; host or cells: MCF-7 human breast cancer cells (Lauritzen et al., 2010)
T2 sequence (Q9Y6M7 1-1214): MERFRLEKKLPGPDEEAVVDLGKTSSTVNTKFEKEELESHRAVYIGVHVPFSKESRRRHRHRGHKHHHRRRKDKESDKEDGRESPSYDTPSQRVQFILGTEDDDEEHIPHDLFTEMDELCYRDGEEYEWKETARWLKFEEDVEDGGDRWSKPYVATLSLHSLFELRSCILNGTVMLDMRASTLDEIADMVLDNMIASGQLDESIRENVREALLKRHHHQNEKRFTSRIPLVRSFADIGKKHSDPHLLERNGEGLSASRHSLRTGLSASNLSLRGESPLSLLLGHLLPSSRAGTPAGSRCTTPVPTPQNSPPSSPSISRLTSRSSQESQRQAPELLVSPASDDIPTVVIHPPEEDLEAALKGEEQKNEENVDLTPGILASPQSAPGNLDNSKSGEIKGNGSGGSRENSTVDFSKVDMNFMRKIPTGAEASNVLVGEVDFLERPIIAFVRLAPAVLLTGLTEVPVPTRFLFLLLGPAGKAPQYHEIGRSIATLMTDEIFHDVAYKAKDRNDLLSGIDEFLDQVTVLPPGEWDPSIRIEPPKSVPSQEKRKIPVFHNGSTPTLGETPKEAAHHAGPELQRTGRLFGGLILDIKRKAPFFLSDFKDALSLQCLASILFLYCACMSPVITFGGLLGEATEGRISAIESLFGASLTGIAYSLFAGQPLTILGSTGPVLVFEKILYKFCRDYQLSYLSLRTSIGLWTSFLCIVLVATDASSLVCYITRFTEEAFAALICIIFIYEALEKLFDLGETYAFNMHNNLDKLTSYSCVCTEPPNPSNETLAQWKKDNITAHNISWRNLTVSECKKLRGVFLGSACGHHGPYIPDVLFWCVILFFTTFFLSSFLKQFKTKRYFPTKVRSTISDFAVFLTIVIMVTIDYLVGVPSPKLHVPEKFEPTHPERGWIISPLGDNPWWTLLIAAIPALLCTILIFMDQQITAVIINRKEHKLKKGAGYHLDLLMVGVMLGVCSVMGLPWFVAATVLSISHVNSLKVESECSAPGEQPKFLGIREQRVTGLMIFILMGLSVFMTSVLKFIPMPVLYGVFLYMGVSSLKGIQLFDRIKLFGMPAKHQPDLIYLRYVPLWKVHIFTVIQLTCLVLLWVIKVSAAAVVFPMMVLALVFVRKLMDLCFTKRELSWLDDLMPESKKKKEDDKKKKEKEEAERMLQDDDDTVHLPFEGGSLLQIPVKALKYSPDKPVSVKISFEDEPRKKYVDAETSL

[6] = test system: Na+,HCO3−-cotransport in breast cancer slices or freshly isolated breast cancer organoids; conditions: earlier work; cited from earlier work
[7] = test system: VSMCs of primary aortic explants; assay: VSMC proliferation by time-lapse counting of mitoses; assay type: cell-based, mouse; conditions: 5 μM, PSS, six hours time-lapse
Protocol: as §1

[8] = test system: primary aortic explants; assay: Cell integrity, morphology and viability during 18 hours of time-lapse imaging; assay type: cell-based, mouse
Protocol: as §1, §2

[9] = earlier work; cited from earlier work
[10] = test system: Na+,HCO3−-cotransport in isolated arteries; conditions: previously shown; cited from earlier work
[11] = test system: Na+,HCO3−-cotransport in primary aortic explants; assay: Global pHi recovery and steady-state pHi in primary aortic explants (BCECF); assay type: cell-based, mouse
Protocol: Primary explants were produced from thoracic aortas and common carotid arteries of NBCn1 KO and wild-type (WT) mice. To best maintain the cell morphology and phenotype of native VSMCs, cultured cells were never passaged but investigated directly in primary explants.
as §3
as §2, with “HCO3^−-containing solutions were aerated with a gas mixture of 5% CO2/balance air, whereas HCO3^−-free solutions were gassed with air (i.e., 21% O2/balance N2). All solutions were titrated to pH 7.4 at 37° C.” left out

T1 sequence (P19634 whole entry): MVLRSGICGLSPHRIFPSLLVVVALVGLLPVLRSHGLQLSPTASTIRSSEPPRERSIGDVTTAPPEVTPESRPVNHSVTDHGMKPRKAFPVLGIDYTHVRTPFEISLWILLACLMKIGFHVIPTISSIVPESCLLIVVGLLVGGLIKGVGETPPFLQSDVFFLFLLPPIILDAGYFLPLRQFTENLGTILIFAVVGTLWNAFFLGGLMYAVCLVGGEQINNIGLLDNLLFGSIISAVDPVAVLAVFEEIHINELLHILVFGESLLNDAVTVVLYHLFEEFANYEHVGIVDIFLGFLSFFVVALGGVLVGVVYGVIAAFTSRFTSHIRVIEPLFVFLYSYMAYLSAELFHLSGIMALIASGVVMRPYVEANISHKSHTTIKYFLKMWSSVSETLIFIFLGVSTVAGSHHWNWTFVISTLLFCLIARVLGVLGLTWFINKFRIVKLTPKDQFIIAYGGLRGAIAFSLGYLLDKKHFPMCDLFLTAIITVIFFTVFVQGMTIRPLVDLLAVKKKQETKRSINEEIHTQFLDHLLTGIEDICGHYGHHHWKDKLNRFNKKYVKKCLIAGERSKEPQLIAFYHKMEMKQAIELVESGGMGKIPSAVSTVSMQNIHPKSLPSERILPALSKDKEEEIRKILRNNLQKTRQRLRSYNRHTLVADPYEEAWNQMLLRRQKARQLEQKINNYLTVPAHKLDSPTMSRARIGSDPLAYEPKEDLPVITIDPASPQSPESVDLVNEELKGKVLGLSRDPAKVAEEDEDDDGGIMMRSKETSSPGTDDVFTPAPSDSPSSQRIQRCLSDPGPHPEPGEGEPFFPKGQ

SMILES: CCN(c1nc(N)c(C(=O)N=C(N)N)nc1Cl)C(C)C [5-(N-Ethyl-N-isopropyl)amiloride]
- remaining net acid extrusion after inhibition of Na+,HCO3−-cotransport in MCF-7 cells [1]: inhibited

SMILES: CC(=O)Nc1nnc(S(N)(=O)=O)s1 [acetazolamide]
- abundance of filopodia ([2]; 100 μM, aortic explants from NBCn1 KO mice, presence of CO2/HCO3-): increased abundance
- initial rate of wound healing ([3]; 100 μM, aortic explants from NBCn1 KO mice, CO2/HCO3−-containing medium with serum): increased
- axial pHi gradients ([4]; 100 μM, explants from NBCn1 KO mice, presence of CO2/HCO3-): reestablishes

SMILES: C[C@@H](N)[C@H]1CC[C@H](C(=O)Nc2ccncc2)CC1 [Y-27632]
- wound healing ([3]; 10 μM, primary aortic explants from NBCn1 KO and WT mice): stimulated

SMILES: Cc1ccc(CN(Cc2ccc(-c3ccccc3S(=O)(=O)NC#N)cc2)C(=O)c2ccccc2Cl)cc1 [S0859]
- Na+,HCO3−-cotransport in cultures of MCF7 breast cancer cells [5]: inhibits
- presence of filopodia ([2]; CO2/HCO3−-free conditions): unaffected
- presence of filopodia ([2]; explants from WT mice, CO2/HCO3−-containing PSS): reduced
- effect in breast cancer slices or freshly isolated breast cancer organoids [6]: has no effect
- wound healing ([3]; 5 μM, PSS, presence of CO2/HCO3-): inhibited
- relative number of mitoses [7]: no effect
- cell integrity and morphology ([8]; 5 μM, 18 hours, PSS with CO2/HCO3-): well-maintained
- cell morphology ([8]; 30 μM, 18 hours, PSS with CO2/HCO3-): severe morphological changes
- cell viability ([8]; primary explants, CO2/HCO3−-containing PSS, FIG. 16): causes loss of cell viability
- protein binding [9]: unusually strong protein binding
- pHi of migrating VSMCs, in particular at the tip of filopodia ([4]; 5 μM, 15 minutes exposure, PSS): strongly acidified
- cellular net acid extrusion in isolated arteries [10]: does not affect
- Na+,HCO3−-cotransport activity ([11]; primary aortic explants from WT mice, CO2/HCO3- present, 5 and 30 μM): concentration-dependently attenuates
- steady-state pHi ([11]; primary aortic explants, five minutes after addition of S0859): concentration-dependently attenuates
